{"source": "patent US20170027952A1", "about": "“ASSOCIATION BETWEEN 3-[(3--2-OXO-2,3-DIHYDRO-1H-INDOL-5-YL)METHYL]-1,3-THIAZOLIDINE-2,4-DIONE AND AN EGFR TYR KINASE INHIBITOR” (LES LABORATOIRES SERVIER, priority 2015, published 2017)", "key": {"[1]": {"system": "erlotinib-resistant cell line HCC827", "settings": "resistant line HCC827, compound on its own, 100 nM", "experimental": "A cell viability test allowing the anti-proliferative ability of the anti-tumour compounds to be measured was used. The chosen cell line is line HCC827, a non-small cell lung cancer line that depends upon EGFR for its survival. […] The cells are seeded (150 μl) at the appropriate density in the wells of 96-well plates 2 days prior to the experiment. One column contains the untreated control cells representing 100% proliferation. The others are incubated with the test products for 4 doubling times."}, "[2]": {"system": "erlotinib-resistant HCC827 tumour", "experiment": "Inhibition of the growth of the erlotinib-resistant HCC827 tumour", "format": "in vivo, female SCID mice", "settings": "d19, end of treatments, compounds on their own, oral daily for 19 days; erlotinib 12.5 mg/kg, compound A 50 mg/kg", "experimental": "The tumours were allocated at random into groups of eight mice when the tumour volume had reached approximately 200 mm^3. […] The tumour volumes were measured two to three times each week using a sliding caliper. The median tumour volumes with the interquartile ranges are recorded on the graph."}}, "note": "Where a name gives a salt, the structure may show the parent alone."}
{"smiles": "O=C1Nc2ccc(CN3C(=O)CSC3=O)cc2C1=Cc1cc(CN2CCOCC2)c[nH]1", "note": "[compound A, 3-[(3-{[4-(4-morpholinyl-methyl)-1H-pyrrol-2-yl]methylene}-2-oxo-2,3-dihydro-1H-indol-5-yl)methyl]-1,3-thiazolidine-2,4-dione hydrochloride]", "values": [{"measurement": "effect on the viability", "setting": "[1]", "value": "no effect on the viability"}, {"measurement": "inhibition of the growth", "setting": "[2]", "value": 83, "unit": "%"}]}
